From patent US4211769A, “Preparations for vaginal administration” (Takeda Chemical Industries, Ltd., priority 1977, dated 1980)
Read-outs that look alike come from different tables or passages of the source.

What was measured:
matured female SD rats = type: in vivo, rat; conditions: vaginal, aqueous solution with 10% citric acid at pH 2.0
Protocol: A synthetic peptide (monoacetate.pentahydrate; (Pyr)Glu-His-Trp-Ser-Tyr-D-Leu-Leu-Arg-Pro-NH-C2 H5) was dissolved in aliquots of Clark-Lubs buffer [J. Bact. 2, (1), 109, 191(1971) [or Sorensen's buffer [Ergeb.Physiol. 12, 3931 (1912)] at pH 2-7 and each solution was supported on a piece (substantially-predetermined volume) of cotton and administered into the vaginas of rats to investigate the pH dependence of the ovulation-stimulating activity of the peptide.
Using matured female SD rats (120-150 days, body weights from 250 to 350 g), each preparation was vaginally administered during the diestrus and the animal was autopsied next morning to check for the occurrence of ovulation based on the presence or absence of ova in the ampulla.
The same peptide as that used in Example 12 was dissolved in 0.238 mol/liter aqueous solutions of various water-soluble aliphatic carboxylic acids which had been previously adjusted to pH 3.5 with small amounts of 10 N--NaOH. […]
The same peptide as used in Example 12 was employed as the active component. Citric acid was added to aliquots of phthalate buffer (pH 3.5) at the levels of addition of 1, 2, 5, 7 and 10% (W/V) and the pH of each solution was readjusted to pH 3.5 with a small amount of concentrated NaOH. […]

rat = type: in vivo
Excerpt: In terms of ovulation-stimulating action, a 30 times increase of stimulating effect was obtained over the control (without carboxylic acid) in the case of natural type LH-RH (Table 1). […] It is clear that a given pharmacological effect can be obtained at a dose equivalent to 5.2 times the intravenous dose or 3.1 times the subcutaneous dose. […] In view of these facts, it is obvious that the vaginal administration according to this invention is a very advantageous method of medication.
Thus, to achieve a given ovulation-stimulatingactivity, the vaginal preparation according to this invention requires only 2.6 times as much of peptide as by the intravenous route and 1.7 times as much of peptide as by the subcutaneous route. The unusual effectiveness of the vaginal preparation of this invention will also be apparent in view of the fact that oral administration requires 1900 times as much of peptide as by the intravenous route, rectal administration requires 82 times the dosage by the intravenous route, and vaginal administration with the oleaginous basis (Witepsol® S55) requires 26 times as much of peptide as by the intravenous route.

Structure (SMILES): CCNC(=O)[C@@H]1CCCN1C(=O)[C@H](CCCNC(=N)N)NC(=O)[C@H](CC(C)C)NC(=O)[C@@H](CC(C)C)NC(=O)[C@H](Cc1ccc(O)cc1)NC(=O)[C@H](CO)NC(=O)[C@H](Cc1c[nH]c2ccccc12)NC(=O)[C@H](Cc1c[nH]cn1)NC(=O)[C@@H]1CCC(=O)N1 [peptide of Example 12, (Pyr)Glu-His-Trp-Ser-Tyr-D-Leu-Leu-Arg-Pro-NH-C2 H5]
- ED50, ovulation-stimulating activity (matured female SD rats): 9.9 ng/100 g (body weight of rat)
- ED50, ovulation-stimulating activity (rat; intravenous route): 3.8 ng/100 g (body weight of rat)
- ED50, ovulation-stimulating activity (rat; subcutaneous route): 5.8 ng/100 g (body weight of rat)
